Converted amounts (≈) assume the structure as drawn.
System: Mycobacterium tuberculosis
Test: Antibacterial activity against 2-(quinolin-4-yloxy)acetamide resistant Mycobacterium tuberculosis harboring qcrB gene T313A mutant
Assay type: functional

## CCc1ccc(NCCCOc2cc(C)nc3ccc(Br)cc23)cc1
  MIC: 3.13 µM (≈ 1.25 µg/mL)
